Legend:
Format in all cases: cell-based, human
hChk2 = experiment: IR-dependent phosphorylation of hChk2; conditions: U2OS
Text: Recent findings point toward ATM as a critical upstream regulator of the activity of the checkpoint kinase, hChk2, in IR-damaged cells (Ahn et al., Cancer Res. 60:5934-5936 (2000); Melchionna et al., Nat. Cell Biol. 2:762-765 (2000)). To determine whether ATX was also involved in hChk2 activation, the effect of AS oligonucleotide treatment on the IR-dependent phosphorylation of hChk2 was examined. […] Moreover, the differential effects of AS treatment on p53 expression versus hChk2 activation argue against the possibility that AS exposure leads to nonspecific inhibition of checkpoint signaling responses to IR-induced DNA damage.

[1] = system: NMD of the Ter-containing β-globin mRNA; experiment: NMD assay, β-globin Ter mRNA by RT-PCR; conditions: U2OS, reduced endogenous ATX expression
Description: To prepare recombinant HA-tagged ATX and ATM proteins, HEK 293T cells were plated onto 60-mm dishes (9×10^5 cells per dish), and were transfected with 5 μg pcDNA3.1 (empty vector), HA-ATXWT, HA-ATXKI, or HA-ATMWT plasmid DNAS. Transfections were performed with the Fugene 6 transfection reagent (Roche), according to the manufacturer's instructions. For NMD assays (see Example 9, below), U2OS cells were seeded onto 100 mm dishes (1×10^6 cells per dish). After 20 h, cells were transfected with 1.5 μg of pmCMV-Gl test plasmid, either Norm or 39Ter (Ishigaki et al., 2001); 1.5 μg of phCMV-MUP reference plasmid (Ishigaki et al., Cell 106:607-617 (2001)); and 7 μg of empty plasmid (pcDNA 3.1), plasmids encoding HA-ATMWT, HA-ATMKI, HA-ATXWT or HA-ATXKI. For antisense transfection experiments, U2OS cells were seeded onto 60 mm dishes (1×10^5 cells per dish) in complete medium supplemented with penicillin/streptomycin. […]
Total or nuclear RNA was isolated using Trizol (Invitrogen) or the NE-PER kit (Pierce), respectively. The extent of NMD was determined by using RT-PCR to quantitate the levels of Globin and MUP mRNA as described previously (Ishigaki et al., Cell 83: 1-4 (2001)), except that 21 cycles of PCR were used when analyzing the effects of ATX-specific S and AS oligonucleotides.

p53 = experiment: Stress-induced p53 Ser-15 phosphorylation and p53 accumulation by immunoblotting
Description: To prepare recombinant HA-tagged ATX and ATM proteins, HEK 293T cells were plated onto 60-mm dishes (9×10^5 cells per dish), and were transfected with 5 μg pcDNA3.1 (empty vector), HA-ATXWT, HA-ATXKI, or HA-ATMWT plasmid DNAS. Transfections were performed with the Fugene 6 transfection reagent (Roche), according to the manufacturer's instructions. For NMD assays (see Example 9, below), U2OS cells were seeded onto 100 mm dishes (1×10^6 cells per dish). After 20 h, cells were transfected with 1.5 μg of pmCMV-Gl test plasmid, either Norm or 39Ter (Ishigaki et al., 2001); 1.5 μg of phCMV-MUP reference plasmid (Ishigaki et al., Cell 106:607-617 (2001)); and 7 μg of empty plasmid (pcDNA 3.1), plasmids encoding HA-ATMWT, HA-ATMKI, HA-ATXWT or HA-ATXKI. For antisense transfection experiments, U2OS cells were seeded onto 60 mm dishes (1×10^5 cells per dish) in complete medium supplemented with penicillin/streptomycin. After 30 h, cells were either mock transfected or transfected with sense (S) or antisense (AS) phosphorothioate oligonucleotides (Genset Oligos, La Jolla, Calif.). The S oligonucleotide spans ATX nucleotides 210-229 (5′-[…]-3′), and the AS oligonucleotide is complementary to this sequence (5′-[…]-3′). The cells were transfected with oligonucleotides at final concentrations of 8 μg/ml, with Fugene 6:DNA ratio of 1.6:1. Forty-eight hours after transfection, dishes were exposed to IR, UV-B, or 5-FU, and then harvested for immunoblotting, cell-cycle distribution, or cell survival assays. To examine ATX protein levels in oligonucleotide-treated cells, whole cell extracts were resolved by SDS-PAGE and immunoblotted with α-ATX Ab-1. When oligonucleotide-transfected cells were used for NMD assays, U2OS cells were seeded in culture dishes as described above. The cells were transfected using the Fugene reagent, with 1.5 μg of pmCMV-Gl test plasmid, 0.7 μg of phCMV-MUP reference plasmid, and 24 μg of S or AS oligonucleotide.
A major mediator of stress-induced signaling in mammalian cells is the tumor suppressor protein, p53 (Ko and Prives, Genes and Development 10:1054-1072, (1996); Ryan et al., Curr. Opin. Cell Biol. 13:332-337 (2001)). ATX phosphorylates p53 on Ser-15 (FIG. 1C), a site implicated in the regulation of p53 stability and transcriptional activity (Dumaz and Meek, Curr. Opin. Cell Biol. 13:225-231 (1999); Zhang and Xiong, Science 292:1910-1915 (2001)). Therefore, the possibility that these two proteins are functionally linked during cellular stress responses was investigated. U2OS cells were transiently transfected with a HA-ATXWT or HA-ATXKI expression plasmid, together with a GFP-encoding plasmid to allow for FACS-based enrichment of the transfected cells. The GFP+ cells were then examined for IR-induced stabilization of p53, as well as for specific phosphorylation of this protein on Ser-15. […] In contrast, overexpression of ATXWT enhanced both of these responses in cells exposed to IR.
The recognition of UV light-induced DNA damage occurs primarily during S phase, when pyrimidine dimers and other bulky lesions interfere with replication fork progression (Friedberg, DNA Repair and Mutagenesis (Washington, D.C., ASM Press) (1995); Lindahl and Wood, Cell 103:1121-1131 (1999)).
In order to further define the potential linkage between DNA replicational stress and ATX, the response of AS-treated cells to 5-fluorouracil (5-FU), an S-phase specific cytotoxic agent was examined (Danenberg et al., Seminars in Oncology 26:621-631 (1999); Grem, Investigational New Drugs 18:299-313 (2000)).
Changes in phosphorylation at Ser-15 are typically accompanied by alterations in the expression of the p53 protein, which complicates the interpretation of results obtained by immunoblotting of whole cell extracts with phospho-Ser-15-specific antibodies. […]

5′-AGCAAGCTCCCTCCTGTCTC-3′ (all phosphorothioate, sugars by position and methylation of C not given here) [AS oligonucleotide, ATX antisense phosphorothioate oligonucleotide complementary to ATX nucleotides 210-229]
IR-dependent phosphorylation of hChk2 (hChk2): retained the ability to phosphorylate hChk2 | NMD activity [1]: ATX expression is required for maximal NMD activity | stoichiometric increase in Ser-15 phosphorylation (phospho-Ser-15 to total p53) triggered by UV (p53; U2OS pretreated with proteasome inhibitor LLnV, UV): effectively blocked | level of p53 induction by 5-FU (p53; U2OS, 5-FU exposure, versus S-treated cells): identical to that observed in their S-treated counterparts | phosphorylation and stabilization of p53 induced by IR exposure (p53; U2OS, IR): reduced both the phosphorylation and stabilization of p53 | Ser-15 phosphorylation and p53 protein accumulation in UV-damaged cells (p53; U2OS, UV): severely impaired both Ser-15 phosphorylation and p53 protein accumulation

— US20030228675A1, “ATM related kinase ATX, nucleic acids encoding same and methods of use” (priority 2002, published 2003)
